This note sets out measurements from patent US7160889B2, “Quinazoline compounds” (AstraZeneca AB, priority 2000, dated 2007).

This assay concerns the target T1, KDR receptor (Homo sapiens, UniProt P35968).
T1 construct: made in house; host or cells: insect cells (e.g. Spodoptera frugiperda Sf21, baculovirus)
Kind of assay: In vitro receptor tyrosine kinase inhibition test (a), KDR receptor. It is filed as biochemical. As to conditions: using the KDR receptor. The text has this: (a) In vitro Receptor Tyrosine Kinase Inhibition Test
This assay determines the ability of a test compound to inhibit tyrosine kinase activity. DNA encoding VEGF, FGF or EGF receptor cytoplasmic domains may be obtained by total gene synthesis (Edwards M, International Biotechnology Lab 5(3), 19–25, 1987) or by cloning. These may then be expressed in a suitable expression system to obtain polypeptide with tyrosine kinase activity. […] In the case of the VEGF receptor Flt (Genbank accession number X51602), a 7 kb DNA fragment encoding most of the cytoplasmic domain, commencing with methionine 783 and including the termination codon, described by Shibuya et al (Oncogene, 1990, 5: 519–524), was isolated from cDNA and cloned into a baculovirus transplacement vector (for example pAcYM1 (see The Baculovirus Expression System: A Laboratory Guide, L. A. King and R. D. Possee, Chapman and Hall, 1992) or pAc360 or pBlueBacHis (available from Invitrogen Corporation)). This recombinant construct was co-transfected into insect cells (for example Spodoptera frugiperda 21(Sf21)) with viral DNA (eg Pharmingen BaculoGold) to prepare recombinant baculovirus. […]

T1 sequence (P35968 786-1356 limits assumed): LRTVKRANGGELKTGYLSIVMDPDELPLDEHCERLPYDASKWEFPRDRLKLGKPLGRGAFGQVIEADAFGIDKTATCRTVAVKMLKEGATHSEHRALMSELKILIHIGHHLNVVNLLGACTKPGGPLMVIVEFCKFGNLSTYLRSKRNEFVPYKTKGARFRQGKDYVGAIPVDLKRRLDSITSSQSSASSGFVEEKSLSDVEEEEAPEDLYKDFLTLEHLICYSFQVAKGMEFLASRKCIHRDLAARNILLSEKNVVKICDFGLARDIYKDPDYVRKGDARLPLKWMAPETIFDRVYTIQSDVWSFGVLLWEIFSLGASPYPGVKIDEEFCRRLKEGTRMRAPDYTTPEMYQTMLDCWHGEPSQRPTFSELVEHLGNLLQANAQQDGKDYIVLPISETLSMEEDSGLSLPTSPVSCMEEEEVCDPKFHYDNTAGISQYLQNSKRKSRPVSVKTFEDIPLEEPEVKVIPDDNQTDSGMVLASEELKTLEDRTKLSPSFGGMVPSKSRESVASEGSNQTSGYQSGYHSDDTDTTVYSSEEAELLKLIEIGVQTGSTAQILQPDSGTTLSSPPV

The term IC50 denotes the point on the concentration scale where inhibition reaches its midpoint. With `COc1cc2c(Nc3ccc(Br)cc3F)ncnc2cc1OCC(O)CN1CCN(C)CC1` (stereo not shown) [Example 1], the IC50 lay in the range of 15 to 50 nM.
